Measured values as given in patent publication US7067500B2, “Betaines as adjuvants to susceptibility testing and antimicrobial therapy” (priority 1997, dated 2006).
Entries after “also recorded” stand apart in the source; their conditions may differ. Counter-ions that a name gives are not always drawn.

System: M. tuberculosis isolates (Table 8)
Assay: MTB isolates vs. antibiotic screen in the presence and absence of CB-18
Settings: CB-18 17 μg/ml

Q: How did the “CB-18 induced sensitivity to antibiotics tested” value (061-TBR (INH resistant)) turn out when `CCCCCCCCCCCCCCCCCC[N+](C)(C)CCCC(=O)[O-]` [CB-18, N-(3-carboxypropyl)-N,N-dimethyl-1-octadecanaminium, inner salt] was run?
A: The value was “exacerbated in the presence of CB-18; also recorded: Minor, if any, CB-18 induced sensitivity to”.

Q: What about the “CB-18 induced sensitivity to antibiotics tested” value (896-BAL (multi drug resistant: INH, RIF & PZA)) of the same molecule?
A: Its value is “Minimal, if any, CB-18 induced sensitivity to”.
